Among the data in BindingDB's records for patent US11447504 (Bayer Aktiengesellschaft; Bayer Pharma Aktiengesellschaft; …, 2022) are IC50 values, retold here.

Where “and” joins values, the source holds several entries; their conditions need not be identical. Equal entries are not always repeated.

In the assay the target is T1, Induced myeloid leukemia cell differentiation protein Mcl-1 [K194A,K197A,R201A] (Homo sapiens, UniProt Q07820, K194A/K197A/R201A).
T1 construct: gene MCL1
The assay is described as follows: MCL-1/Noxa BH3 Peptide (MCL-1 Assay). How it is done:
The dose-dependent inhibition by the compounds described in this invention of the interaction between MCL-1 and the BH3 domain of Noxa (both human) was determined using a steady state binding competition assay with time-resolved fluorescence energy transfer (TR-FRET) readout. […] The MBP-MCL-1 was purchased from Beryllium (Bedford, Mass., USA). […] The Noxa BH3-derived peptide can be obtained from e.g. Biosyntan (Berlin, Germany).

T1 sequence (Q07820 whole entry K194A/K197A/R201A, looked up): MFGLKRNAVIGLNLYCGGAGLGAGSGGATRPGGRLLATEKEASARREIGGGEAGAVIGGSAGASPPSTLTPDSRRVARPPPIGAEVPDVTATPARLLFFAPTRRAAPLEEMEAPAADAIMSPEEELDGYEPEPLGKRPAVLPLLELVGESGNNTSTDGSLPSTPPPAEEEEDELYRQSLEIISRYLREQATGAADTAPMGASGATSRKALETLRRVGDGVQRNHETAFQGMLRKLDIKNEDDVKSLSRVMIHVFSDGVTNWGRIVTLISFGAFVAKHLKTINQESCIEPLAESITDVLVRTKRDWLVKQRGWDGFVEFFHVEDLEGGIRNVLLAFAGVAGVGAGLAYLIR

Take `CCc1c2c(nn1C)N(C)CCCCCn1c(C(=O)O)c(CCCOc3cccc4cc(F)ccc34)c3ccc(Cl)c-2c31` [US11447504, Example 77]: the concentration for half-maximal inhibition (IC50) (as a rule, the concentration at which inhibition is half-maximal) was 2.1 nM and 6.4 nM.
`Cc1c2c(nn1C)N(C)CCCCCn1c(C(=O)O)c(CCCOc3cccc4ccccc34)c3ccc(Cl)c-2c31` [US11447504, Example 71] yielded a half-maximal inhibitory concentration (IC50) of 2.2 nM.
